Laboratory results as given in patent US7071185B2, “1,2,3,4,7,8-hexahydro-6H-[1,4]diazepino[6,7,1-ij]quinoline derivatives as antipsychotic and antiobesity agents” (Wyeth, priority 2002, dated 2006).
Structures can show the parent of a compound that is named as a salt. Where two headings read alike, the source gives them in different places.

Experiments:
[1] = biological target: T1, human 5-hydroxytryptamine2C (h5HT2C) receptor (Homo sapiens, UniProt P28335); assay: 5HT2C receptor binding ([125I]DOI displacement, CHO cell membranes)
T1 construct: expressed in transfected cells; host or cells: CHO (Chinese Hamster Ovary) cells; membrane preparation
T1 sequence (P28335 33-458): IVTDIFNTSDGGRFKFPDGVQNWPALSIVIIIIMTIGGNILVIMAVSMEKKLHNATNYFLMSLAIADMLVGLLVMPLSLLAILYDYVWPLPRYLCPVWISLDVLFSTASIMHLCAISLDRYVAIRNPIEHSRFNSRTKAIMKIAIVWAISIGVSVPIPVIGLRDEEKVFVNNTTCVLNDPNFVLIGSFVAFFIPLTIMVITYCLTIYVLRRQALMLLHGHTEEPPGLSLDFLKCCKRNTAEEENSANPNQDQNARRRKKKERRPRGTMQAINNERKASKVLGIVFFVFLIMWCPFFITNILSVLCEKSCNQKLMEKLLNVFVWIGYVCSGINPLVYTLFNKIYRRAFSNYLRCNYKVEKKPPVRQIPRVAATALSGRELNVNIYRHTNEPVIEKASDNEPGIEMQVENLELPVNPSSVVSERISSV

Structure (SMILES) | melting point | Ki [1] | other results
c1cc2c3c(c1)CC1CCCC1N3CCNC2 (stereo not drawn) (as salt: HCl) [Example 1, trans isomer, Trans-1,2,3,4,8,8a,9,10,11,11a-decahydro-cyclopenta[b][1,4]diazapino[6,7,1-ij]quinoline] | 190 °C (dec.) |  | 
c1cc2c3c(c1)C[C@@H]1CCC[C@@H]1N3CCNC2 (relative stereo) (as salt: HCl) [Example 1, cis isomer, Cis 1,2,3,4,8,8a,9,10,11,11a-decahydro-cyclopenta[b][1,4]diazepino[6,7,1-ij]quinoline] | 180 to 190 °C (dec.) |  | 
c1cc2c3c(c1)C[C@H]1CCCC[C@H]1N3CCNC2 (relative stereo) (as salt: HCl) [Example 2, cis isomer, (Cis)-1,2,3,4,8a,9,10,11,12,12a,-decahydro-8H-[1,4]diazepino[6,7,1-de]acridine] | 150 to 155 °C |  | 
c1cc2c3c(c1)C[C@@H]1CCC[C@@H]1N3CCNC2 (relative stereo) [Example 1, cis isomer, Cis 1,2,3,4,8,8a,9,10,11,11a-decahydro-cyclopenta[b][1,4]diazepino[6,7,1-ij]quinoline] |  | 118 nM | 
c1cc2c3c(c1)C[C@H]1CCCC[C@H]1N3CCNC2 (relative stereo) [Example 2, cis isomer, (Cis)-1,2,3,4,8a,9,10,11,12,12a,-decahydro-8H-[1,4]diazepino[6,7,1-de]acridine] |  | 511 nM | 
c1cc2c3c(c1)CC1CCCC1N3CCNC2 (stereo not drawn) [Example 1, trans isomer, Trans-1,2,3,4,8,8a,9,10,11,11a-decahydro-cyclopenta[b][1,4]diazapino[6,7,1-ij]quinoline] |  | 71 nM | 
c1cc2c3c(c1)CC1CCCCC1N3CCNC2 (stereo not drawn) [Example 2, trans isomer, (Trans)-1,2,3,4,8a,9,10,11,12,12a,-decahydro-8H-[1,4]diazepino[6,7,1-de]acridine] | 95 °C | 513 nM | 
CSc1ccc2c(c1)C(N1CCN(C)CC1)Cc1ccccc1S2 (stereo not shown) [Methiothepin, reference compound] |  |  | Ki ([1]; [125I]DOI binding, CHO membranes expressing h5HT2C, read-out: Ki (95% confidence interval), reference compounds): 4.6 nM
COc1cc(CC(C)N)c(OC)cc1I (stereo not shown) [[^125I] DOI, reference compound] |  |  | Kd ([1]; read-out: dissociation constant, KD of [125I] DOI at the human serotonin 5HT2C receptor, saturation binding with increasing concentrations of [125I] DOI): 0.4 nM
